Laboratory results as given in paper PMC12133303, “Characterisation of RNA guanine-7 methyltransferase (RNMT) using a small molecule approach” (Biochemical Journal, 2025).
Read-outs that look alike come from different tables or passages of the source.

Tests used:
HsRNMT-RAM [1] = target: T1, HsRNMT-RAM (Homo sapiens, UniProt O43148); test: Isothermal titration calorimetry (ITC); type: binding; set-up: For biochemical assays, full-length HsRNMT (1-476) was cloned in the pOPC bi-cistronic plasmid; His-MBP (TEV-cleavable) (cleaved yes); made in house; host or cells: Escherichia coli BL21 (DE3); settings: for ΔG / ΔH / −TΔS: 25 mM HEPES pH7.5, 150 mM NaCl, 1 mM TCEP with 10 mM Sinefungin or SAH at 298°K; for Kd: protein pretreated with Sinefungin or SAH
T1 sequence (O43148 whole entry): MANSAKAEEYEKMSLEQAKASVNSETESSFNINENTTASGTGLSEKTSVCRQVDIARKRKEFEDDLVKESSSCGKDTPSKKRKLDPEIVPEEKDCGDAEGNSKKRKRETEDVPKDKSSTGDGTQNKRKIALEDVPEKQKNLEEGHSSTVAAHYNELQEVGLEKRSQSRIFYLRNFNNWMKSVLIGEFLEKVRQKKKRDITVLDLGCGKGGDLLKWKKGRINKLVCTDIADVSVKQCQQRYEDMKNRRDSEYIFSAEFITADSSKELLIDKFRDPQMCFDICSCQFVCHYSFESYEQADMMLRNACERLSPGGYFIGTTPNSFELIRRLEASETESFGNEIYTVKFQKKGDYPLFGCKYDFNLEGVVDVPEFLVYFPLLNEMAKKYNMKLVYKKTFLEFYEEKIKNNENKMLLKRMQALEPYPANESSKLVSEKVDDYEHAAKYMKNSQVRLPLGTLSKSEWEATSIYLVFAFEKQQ
T1 sequence (Q9BTL3 1-90 partner limits assumed): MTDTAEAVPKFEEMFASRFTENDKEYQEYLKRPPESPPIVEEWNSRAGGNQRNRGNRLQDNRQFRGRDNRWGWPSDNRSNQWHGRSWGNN
Method: For both DDD1060606 and DDD1870799, we determined the enthalpic and entropic components of the free energy of binding to HsRNMT-RAM to guide both compound selection and the optimisation process. Note that all of the isothermal titration calorimetry (ITC) experiments were performed with protein pretreated with SAH or Sinefungin. We used cap as the reference ligand as it is widely accepted that ligands with more negative enthalpies of binding provide better starting points for lead optimisation. The interaction of cap with HsRNMT-RAM is enthalpically driven with an ΔH of −33.5 kcal/mol (Figure 9A) and net free energy change, ΔG of −8.4 kcal/mol (Figure 9B). Furthermore, we determined the binding affinities for DDD1060606 and DDD1870799 to HsRNMT-RAM.
[…] Working stock for ligands and protein complex was prepared at the required concentration by diluting the stocks with the dialysis buffer. The DMSO concentrations in the cell and syringe solutions were matched to 2.5% for the compound (DDD1060606 or DDD1870799) titrations. Experiments were performed using 13 injections of 3 μL of ligand using Malvern PEAQ-ITC system at 25°C, at 750 rpm with reference power set to 7 μcal/s. The thermograms were analysed using MicroCal PEAQ-ITC Analysis Software, blanked to ligand control and fit to One Set of Sites Model.

Avi-HsRNMT-RAM = target: T2, Avi-HsRNMT-RAM (Homo sapiens, UniProt O43148); test: SPR binding to immobilised Avi-HsRNMT-RAM; settings: for kon: read-out: ka
T2 construct: Both HsRNMT full-length proteins (1-476) in complex with HsRAM (1-90) (HsRNMT-RAM and Avi-HsRNMT-RAM); hexa-His tag (TEV-cleavable) (N, cleaved yes); made in house; host or cells: Escherichia coli BL21 (DE3), co-transformed with pCDFduet-BirA
T2 sequence (O43148 whole entry): as the sequence (O43148 whole entry) above
T2 sequence (Q9BTL3 1-90 partner limits assumed): as the sequence (Q9BTL3 1-90 partner limits assumed) above
Description: To elucidate the cap-binding mode, full-length HsRNMT in complex with activating subunit RAM (Avi-HsRNMT-RAM) was investigated by surface plasmon resonance (SPR). We first measured the kinetic and equilibrium binding constants (KD) for SAM (Figure 3A), SAH (Figure 3B), and Sinefungin (Figure 3C). The kinetics of binding for these compounds appear very similar with a rapid onset of binding reaching a steady state within a few seconds. The loss of binding on washing with buffer was very similar.
Studies of binding kinetics were performed on a Biacore™ 8K + instrument (GE Healthcare). […] Compounds were tested in duplicate in a three-fold, eight-point serial dilution series in immobilisation buffer supplemented with 1% DMSO, with a flow rate of 30 μL min^-1, a contact time of 60 s and a dissociation time of 120 s at 25°C.
All monitored binding resonance signals were referenced with responses from unmodified reference surfaces, corrected for bulk shifts arising from differences in DMSO concentrations between samples and running buffer (solvent correction) and blank-referenced. Analysis was performed using the Biacore™ Insight Evaluation Software 2.0 with data fitted using the Langmuir 1:1 model.
The full-length HsRNMT complexed with HsRAM 1–90 (Avi-HsRNMT-RAM) was immobilised onto a Series S high-affinity SA sensor chip via C-terminal Avi-tag capture in HBS-P + buffer (10 mM HEPES, 150 mM NaCl, 0.5 mM TCEP) to an immobilisation level of 2200 RU, and the titration was performed at 15°C.

HsRNMT-RAM [2] = target: T1, HsRNMT-RAM; test: Mode of inhibition experiments (RapidFire assay); settings: for Ki: Ki (95% CI)
Method: An endpoint 384-well plate assay for HsRMNT-RAM activity was developed using the Agilent RapidFire 365 high-throughput system with integrated SPE interfaced with the Agilent 6740 triple quadrupole mass spectrometer. The assay was performed by mixing 5 nM HsRNMT-RAM in buffer (20 mM Tris, pH 8.0, 50 mM NaCl) supplemented with 1 mM EDTA, 1 mM DTT, 0.1 mg/mL BSA, 0.005% Nonidet P40 (Roche) and 3 mM MgCl2 with 2 µM of substrates (G(5′)ppp(5′)G Sodium Salt (cap) [New England Biolabs, Ipswich, MA]) and S-(5′-Adenosyl)-L-methionine chloride dihydrochloride (SAM [Cayman Chemical, Ann Arbor, MI]). The enzymatic reaction incubated for 60 minutes at room temperature followed by quenching with 80 μL 1% formic acid (VWR, Radnor, PA) containing 0.03 µg/µL S-adenosylhomocysteine-d4 (d4SAH [Cambridge Bioscience, Cambridge, U.K]). Plates were centrifuged at 500×g for 1 minute after every addition and sealed using the PlateLoc thermal microplate sealer before analysis on the RapidFire. Samples were loaded onto the RapidFire system, and analysis was performed as described for the identification of inhibitors of the SARS-CoV-2 guanine-N7-methyltransferase [32].
Mode of inhibition experiments were carried out by testing enzymatic activity at a range of compound and substrate concentrations. Compounds were tested at five different concentrations selected around the pIC50 against five substrate concentrations (between 2.2 and 20 µM). The data were fitted globally to equations describing inhibition [47] to determine the respective kinetic constants. All analyses were performed in Sigmaplot Version 14.0.3.192.
Where relevant, data are presented as the mean of three independent experiments with 95% CI.

HsRNMT-RAM [3] = target: T1, HsRNMT-RAM; test: RapidFire mass spectrometry assay, inhibition dose response; type: biochemical; set-up: For biochemical assays, full-length HsRNMT (1-476) was cloned in the pOPC bi-cistronic plasmid; His-MBP (TEV-cleavable) (cleaved yes); made in house; host or cells: Escherichia coli BL21 (DE3); settings: for IC50: 5 nM HsRNMT-RAM, 2 µM SAM, 2 µM cap, 60 minutes, 10 point 1:3 dilutions from 100 μM, read-out: pIC50 (negative logarithm of half-maximal inhibitory concentration [molar]) (converted)
HsRNMT-RAM [4] = target: T1, HsRNMT-RAM; test: Km determinations (RapidFire Mass Spec assay); type: biochemical; set-up: For biochemical assays, full-length HsRNMT (1-476) was cloned in the pOPC bi-cistronic plasmid; His-MBP (TEV-cleavable) (cleaved yes); made in house; host or cells: Escherichia coli BL21 (DE3); settings: SAM 40 to 0.08 µM, saturating cap (40 µM), 5 nM enzyme; mean of three experiments [95% CI]
Method: Experiments to determine the Km^app values were carried out using a two-fold dilution of cap or SAM from 40 to 0.08 µM and a saturating concentration (40 µM) of SAM (Km^app cap) or cap (Km^app SAM). HsRNMT-RAM was used at 5 nM. Data were analysed to calculate the initial velocity (V0). Km^app and Vmax values were determined by nonlinear regression analysis fitted to the Michaelis–Menten equation [46] using Sigmaplot Version 14.0.3.192.

[5] = SPR, ligand titrated in presence of SAH
[6] = SPR, ligand titrated in presence of Sinefungin (saturating, 1 µM), 15°C
[7] = SPR, no co-ligand, Langmuir 1:1 model
[8] = SPR, inhibitor titrated in presence of SAH
[9] = SPR, inhibitor titrated in presence of SAH, read-out: KD (kinetic)
[10] = SPR, inhibitor titrated in presence of SAH, read-out: KD (steady state)
[11] = SPR, inhibitor titrated in presence of SAM
[12] = SPR, inhibitor titrated, no co-ligand
[13] = SPR, no co-ligand, read-out: KD (kinetic)
[14] = SPR, no co-ligand, read-out: KD (steady state)

Nc1nc2c(ncn2[C@@H]2O[C@H](COP(=O)(O)OP(=O)(O)OP(=O)(O)OC[C@H]3O[C@@H](n4cnc5c(=O)[nH]c(N)nc54)[C@H](O)[C@@H]3O)[C@@H](O)[C@H]2O)c(=O)[nH]1 [Cap, G(5′)ppp(5′)G]
ΔG (HsRNMT-RAM [1]): -8.4 kcal/mol | ΔH (HsRNMT-RAM [1]): -33.5 kcal/mol | −TΔS (HsRNMT-RAM [1]): 25.1 kcal/mol | Kd (HsRNMT-RAM [1]): 0.7 µM | KD (kinetic) (Avi-HsRNMT-RAM; [5]): No binding | KD (steady state) (Avi-HsRNMT-RAM; [5]): No binding | Rmax (Avi-HsRNMT-RAM; [5]): No binding | ka (Avi-HsRNMT-RAM; [5]): No binding | kd (Avi-HsRNMT-RAM; [5]): No binding | KD (kinetic) (Avi-HsRNMT-RAM; SPR, ligand titrated in presence of SAH, listed as cap): No interaction | Rmax (Avi-HsRNMT-RAM; [6]): 11.8 RU | kd (Avi-HsRNMT-RAM; [6]): 0.025 s⁻¹ | Kd (Avi-HsRNMT-RAM; SPR, ligand titrated in presence of Sinefungin (saturating, 1 µM), 15°C, read-out: KD (kinetic)): 0.02 µM | Kd (Avi-HsRNMT-RAM; SPR, ligand titrated in presence of Sinefungin (saturating, 1 µM), 15°C, read-out: KD (steady state)): 0.035 µM | kon (Avi-HsRNMT-RAM; [6]): 1.2e+06 M⁻¹ s⁻¹ | KD (kinetic) (Avi-HsRNMT-RAM; SPR, no co-ligand): No binding | KD (steady state) (Avi-HsRNMT-RAM; SPR, no co-ligand): No binding | Rmax (Avi-HsRNMT-RAM; SPR, no co-ligand): No binding | ka (Avi-HsRNMT-RAM; [7]): No binding | kd (Avi-HsRNMT-RAM; [7]): No binding | KD (kinetic) (Avi-HsRNMT-RAM; SPR, no co-ligand, listed as cap): No interaction

O=C(Cc1ccsc1)N1CCCC(c2n[nH]c3ncccc23)C1 (stereo not drawn) [DDD1060606]
Ki (HsRNMT-RAM [2]; Ki SAM, against SAM): 1.6 µM | Ki (HsRNMT-RAM [2]; Ki cap, against cap): 1.6 µM | mode of inhibition with SAM (HsRNMT-RAM [2]; against SAM): Uncompetitive | mode of inhibition with cap (HsRNMT-RAM [2]; against cap): Uncompetitive | ΔG (HsRNMT-RAM [1]): -7.5 kcal/mol | ΔH (HsRNMT-RAM [1]): -4.3 kcal/mol | −TΔS (HsRNMT-RAM [1]): -3.1 kcal/mol | entropic contribution Δ(TΔS) (HsRNMT-RAM [1]; DDD1060606 compared with DDD1870799): -1.8 kcal/mol | Kd (HsRNMT-RAM [1]): 3.2 µM | Rmax (Avi-HsRNMT-RAM; [8]): 13.2 RU | kd (Avi-HsRNMT-RAM; [8]): 0.27 s⁻¹ | Kd (Avi-HsRNMT-RAM; [9]): 1.6 µM | Kd (Avi-HsRNMT-RAM; [10]): 1.4 µM | KD (kinetic) (Avi-HsRNMT-RAM; [11]): No binding | KD (steady state) (Avi-HsRNMT-RAM; [11]): No binding | Rmax (Avi-HsRNMT-RAM; [11]): No binding | ka (Avi-HsRNMT-RAM; [11]): No binding | kd (Avi-HsRNMT-RAM; [11]): No binding | KD (kinetic) (Avi-HsRNMT-RAM; [12]): No binding | KD (steady state) (Avi-HsRNMT-RAM; [12]): No binding | Rmax (Avi-HsRNMT-RAM; [12]): No binding | ka (Avi-HsRNMT-RAM; [12]): No binding | kd (Avi-HsRNMT-RAM; [12]): No binding | inhibition of HsRNMT-RAM activity (HsRNMT-RAM [3]): > 80% | IC50 (HsRNMT-RAM [3]): 3.16 µM

O=C(Cc1ccc(F)cc1)N1CCCC(c2n[nH]c3nc(O)ccc23)C1 (stereo not drawn) [DDD1870799]
Ki (HsRNMT-RAM [2]; Ki SAM, against SAM): 3.4 µM | Ki (HsRNMT-RAM [2]; Ki cap, against cap): 3.3 µM | mode of inhibition with SAM (HsRNMT-RAM [2]; against SAM): Uncompetitive | mode of inhibition with cap (HsRNMT-RAM [2]; against cap): Uncompetitive | ΔG (HsRNMT-RAM [1]): -7.5 kcal/mol | ΔH (HsRNMT-RAM [1]): -6.2 kcal/mol | −TΔS (HsRNMT-RAM [1]): -1.3 kcal/mol | net enthalpic change ΔΔH (HsRNMT-RAM [1]; DDD1870799 in comparison with DDD1060606): -1.9 kcal/mol | Kd (HsRNMT-RAM [1]): 2.9 µM | Rmax (Avi-HsRNMT-RAM; [8]): 13.3 RU | kd (Avi-HsRNMT-RAM; [8]): 0.45 s⁻¹ | Kd (Avi-HsRNMT-RAM; [9]): 2.5 µM | Kd (Avi-HsRNMT-RAM; [10]): 2.3 µM | KD (kinetic) (Avi-HsRNMT-RAM; [11]): No binding | KD (steady state) (Avi-HsRNMT-RAM; [11]): No binding | Rmax (Avi-HsRNMT-RAM; [11]): No binding | ka (Avi-HsRNMT-RAM; [11]): No binding | kd (Avi-HsRNMT-RAM; [11]): No binding | KD (kinetic) (Avi-HsRNMT-RAM; [12]): No binding | KD (steady state) (Avi-HsRNMT-RAM; [12]): No binding | Rmax (Avi-HsRNMT-RAM; [12]): No binding | ka (Avi-HsRNMT-RAM; [12]): No binding | kd (Avi-HsRNMT-RAM; [12]): No binding | inhibition of HsRNMT-RAM activity (HsRNMT-RAM [3]): > 80% | IC50 (HsRNMT-RAM [3]): 10 µM

Nc1nc(O)c2ncn([C@@H]3O[C@H](COP(=O)(O)OP(=O)(O)NP(=O)(O)O)[C@@H](O)[C@H]3O)c2n1 [GMP-PnP, guanosine 5′-[β,γ-imido]triphosphate, reference compound]
Ki (HsRNMT-RAM [2]; Ki cap, against cap): 2.3 µM | mode of inhibition with cap (HsRNMT-RAM [2]; against cap): competitive

Nc1ncnc2c1ncn2[C@@H]1O[C@H](CSCC[C@H](N)C(=O)O)[C@@H](O)[C@H]1O [SAH, S-adenosylhomocysteine]
Rmax (Avi-HsRNMT-RAM; SPR, no co-ligand): 14.3 RU | kd (Avi-HsRNMT-RAM; [7]): 0.072 s⁻¹ | Kd (Avi-HsRNMT-RAM; [13]): 0.019 µM | Kd (Avi-HsRNMT-RAM; [14]): 0.018 µM | kon (Avi-HsRNMT-RAM): 3.8e+06 M⁻¹ s⁻¹

C[S+](CC[C@H](N)C(=O)[O-])C[C@H]1O[C@@H](n2cnc3c(N)ncnc32)[C@H](O)[C@@H]1O (stereo partly drawn) [SAM, S-adenosylmethionine]
Km (HsRNMT-RAM [4]): 1.6 µM | Rmax (Avi-HsRNMT-RAM; SPR, no co-ligand): 14.9 RU | kd (Avi-HsRNMT-RAM; [7]): 0.1 s⁻¹ | Kd (Avi-HsRNMT-RAM; [13]): 0.079 µM | Kd (Avi-HsRNMT-RAM; [14]): 0.089 µM | kon (Avi-HsRNMT-RAM): 1.2e+06 M⁻¹ s⁻¹

Nc1ncnc2c1ncn2[C@@H]1O[C@H](C[C@@H](N)CC[C@H](N)C(=O)O)[C@@H](O)[C@H]1O [Sinefungin, reference compound]
Ki (HsRNMT-RAM [2]; Ki SAM, against SAM): 0.0068 µM | Ki (HsRNMT-RAM [2]; Ki cap, against cap): 0.104 µM | mode of inhibition with SAM (HsRNMT-RAM [2]; against SAM): competitive inhibition | mode of inhibition with cap (HsRNMT-RAM [2]; against cap): non-competitive inhibition | Rmax (Avi-HsRNMT-RAM; SPR, no co-ligand): 14.2 RU | kd (Avi-HsRNMT-RAM; [7]): 0.092 s⁻¹ | Kd (Avi-HsRNMT-RAM; [13]): 0.077 µM | Kd (Avi-HsRNMT-RAM; [14]): 0.073 µM | kon (Avi-HsRNMT-RAM): 1.2e+06 M⁻¹ s⁻¹
